Test system: isolated guinea pig ileum
Test: Anti-cholinergic activity: acetylcholine-induced contraction of isolated guinea pig ileum
Details: in words; isolated compounds were tested only on isolated guinea pig ileum
Procedure: Female, virgin guinea pigs weighing around 300 to 350 g, housed under uniform husbandry conditions (temperature 25±1° C.) were used. The animals were starved 24 hours prior to the experiment, only water was provided ad libitum.
The isolated guinea pig ileum was used to study the anti-spasmodic, anti-cholinergic, and anti-arrhythmic activity of the active fractions.
In particular, the five compounds isolated were tested only on isolated guinea pig ileum. The longitudinal ileal muscle from a freshly killed guinea pig was suspended in an organ bath of 10 ml capacity, filled with Tyrode solution, and aerated with air.
All of these compounds were dissolved in 1000 ml of distilled water.
Two to four doses of acetylcholine were added to the bath to obtain uniform amplitude with a contact period of 30 seconds, the contractions of which were recorded on a polygraph. The five compounds isolated were tested in doses of 196 and 392×10^−6 moles per ml of bath concentration.

Row | SMILES | biological activity shown by the extract, in purified compounds
1 | C=C(C)[C@@H]1CC[C@]2(CO)CC[C@]3(C)[C@H](CC[C@@H]4[C@@]5(C)CC[C@H](O)C(C)(C)[C@@H]5CC[C@]43C)[C@@H]12 [betulin] | maintained
2 | CCCCCCCCCCCCCCCC(=O)OC [methyl palmitate] | maintained

— patent US6753021B2, “Biologically active chloroform fraction of an extract obtained from a mangrove plant Salvadora persica L” (Council of Scientific & Industrial Research, priority 2001, dated 2004)
